Reference: patent publication US20250099466A1 (BRISTOL-MYERS SQUIBB COMPANY, priority 2021, published 2025)
Oligonucleotides are written 5' to 3', each unit as a sugar letter and its base; * is a phosphorothioate linkage, no mark a phosphodiester; rarer units and linkages stand in square brackets, end groups in braces. Plain capitals give the bases only. e = 2'-O-(2-methoxyethyl) (MOE); [5mC] = 5-methylcytosine; d = 2'-deoxy (DNA)

Test system: electrically induced carotid artery thrombosis (ECAT) in rabbits; rabbit FXI mRNA
Assay: Rabbit ECAT model after FXI antisense oligonucleotide treatment
Assay type: in vivo
Settings: subcutaneous twice weekly for 4 weeks
Protocol: The rabbit ECAT model, described by Wong et al. was used in the rabbit ECAT study (Wang et al. J. Pharmacol. Exp. Ther. 295:212-8, 2002). The ECAT model was conducted 3 to 4 days after the last dose of vehicle, FXI-ASO2, or FXI-ASO1. FXI-ASO1 has the nominal nucleotide sequence of […] (SEQ ID NO: 1) and is complementary to a sequence within rabbit FXI mRNA. FXI-ASO2 (control ASO) has the nominal nucleotide sequence of […] (SEQ ID NO: 2) and has no known complementary sequence in rabbit mRNA. Oligonucleotides were chemically modified with phosphorothioate in the backbone and 2′-O-methoxyethyl on the wings with a central deoxy gap (so-called 5-10-5 design). Cytosine bases were rendered as 5-methylcytosine.
Separate samples for each dose of FXI-ASO1 and FXI-ASO2 were weighed on an analytical balance. […]
Male New Zealand White rabbits were anesthetized with ketamine (50 mg/kg+50 mg/kg/h intramuscularly) and xylazine (10 mg/kg+10 mg/kg/h intramuscularly). […] Carotid blood flow was measured with an electromagnetic flow probe continuously beginning 30 min before the electrical stimulation and over a 90-min period after stimulation to monitor thrombosis-induced occlusion. Integrated carotid blood flow, as a percentage of pre-electrical stimulation control period, was measured by the area under the flow-time curve. […]

In the case of “FXI-ASO2: control ASO CCTTCCCTGAAGGTTCCTCC (SEQ ID NO: 2), no known complementary sequence in rabbit mRNA (e[5mC]*e[5mC]*eT*eT*e[5mC]*d[5mC]*d[5mC]*dT*dG*dA*dA*dG*dG*dT*dT*e[5mC]*e[5mC]*eT*e[5mC]*e[5mC])”, the thrombus weight is reported as “did not reduce thrombus weight”.
